We go through seven compounds from patent US20070197517A1, “Combination therapy for hyperproliferative disease” (Pfizer Inc., priority 2002, published 2007).

Where a name gives a salt, the structure may show the parent alone.

The subject of experiment [1] is Human Breast Carcinoma MDA-MB-231. The experiment is described as follows: Anti-tumor efficacy of doxorubicin with Compound X, s.c. MDA-MB-231 xenograft. The experiment is classed as in vivo, Nu/Nu mice. As to conditions: vs Gelucire vehicle day 24. On the procedure: Exponentially grown human breast carcinoma MDA-MB-231 cells [DMEM with 10% FBS, and pen/strep (Gibco)] were harvested and inoculated subcutaneously (3-5×10^6 cells/mouse, 200 μl) into the right flank of female Nu/Nu mice (˜20 grams; Charles River Laboratories, MA). 36 days after inoculation, tumor-bearing animals of approximately 75 mm^3 in size were separated into control (n=19) or experimental groups of animals (n=7 each).
[…] The mesylate salt of 3-(4-Bromo-2,6-difluoro-benzyloxy)-5-[3-(4-pyrrolidin-1-yl-butyl)-ureido}-isothiazole-4-carboxylic acid amide was formulated in 5% Gelucire (Gattefosse Inc., France) and dosed po, qd×24 at 12.5, 25, 50 and 100 mg/kg. One group received 5% Gelucire only, (200 μl/animal, po, qd×24) which served as the vehicle control for the experiment.
(§1) Animal body weight and tumor measurements were obtained at regular intervals. Tumor volume (mm^3) was calculated using the formula length (mm)×width (mm)×width (mm)×0.5.
Mean tumor volume in Gelucire vehicle group on day 24 was used for the % growth inhibition calculation.

The subject of experiment [2] is Human Pancreatic Carcinoma Capan-1. The experiment is described as follows: Anti-tumor efficacy of gemcitabine hydrochloride and Compound X, s.c. Capan-1 xenograft. The experiment is classed as in vivo, Nu/Nu mice. As to conditions: for % Tumor Growth Inhibition: vs Gelucire vehicle day 13. On the procedure:
(10^7 cells/mouse, 200 μl) into the right flank of female Nu/Nu mice (˜20 grams; […] An overview of each of the groups and the treatment is set forth below in the table. [table] Animal body weight and tumor measurements were obtained at regular intervals. […] Mean tumor volume in Gelucire vehicle group on day 13 was used for % growth inhibition calculation.

Experiment [3] concerns Human Colon Carcinoma Colo-205. The experiment is described as follows: Anti-tumor efficacy of 5-FU with Compound X, s.c. Colo-205 xenograft. The experiment is classed as in vivo. As to conditions: vs Gelucire vehicle day 12. On the procedure: (§2) Exponentially grown human colon carcinoma Colo-205 cells [RPMI 1640 with 10% FBS, and pen/strep (Gibco)] were harvested and inoculated subcutaneously (5×10^6 cells/mouse, 200 μl) into the right flank of female Nu/Nu mice (˜20 grams; Charles River Laboratories, MA). 9 days after inoculation, tumor-bearing animals of approximately 150 mm^3 in size were separated into groups of 7 animals each.
5-FU (ICN Pharmaceuticals, Inc., Costa Mesa, Calif.) was formulated in 0.9% saline and dosed iv×1 at 25 and 100 mg/kg. One group received 0.9% saline only (200 μl/animal, iv×1) which served as the control for the experiment. The mesylate salt of 3-(4-Bromo-2,6-difluoro-benzyloxy)-5-[3-(4-pyrrolidin-1-yl-butyl)-ureido}-isothiazole-4-carboxylic acid amide was formulated in 5% Gelucire (Gattefosse Inc., France) and dosed po, qd×12 at 25, 50 and 100 mg/kg. One group received 5% Gelucire only, (200 μl/animal, po, qd×12) which served as the vehicle control for the experiment.
as §1
(§3) Mean tumor volume in Gelucire vehicle group on day 12 was used for the % growth inhibition calculation.

Experiment [4] concerns Human Non Small Cell Lung Carcinoma EBC-1. In words: Anti-tumor efficacy of paclitaxel (Taxol) with Compound X, s.c. EBC-1 xenograft. As to conditions: vs Gelucire vehicle day 15. Type of experiment: in vivo, Nu/Nu mice. On the procedure:
Exponentially grown human non-small cell lung carcinoma EBC-1 cells [(RPMI 1640 with 10% FBS, and pen/strep (Gibco)] were harvested and inoculated s.c. (10^7 cells/mouse, 200 μl) into the right flank of female Nu/Nu mice (˜20 grams; Charles River Laboratories, MA.). 7 days after inoculation, tumor-bearing animals of approximately 150 mm^3 in size were separated into groups of 5 animals each.
Compound X (the mesylate salt of 3-(4-Bromo-2,6-difluoro-benzyloxy)-5-[3-(4-pyrrolidin-1-yl-butyl)-ureido}-isothiazole-4-carboxylic acid amide) was formulated in 5% Gelucire (Gattefosse Inc. France) and dosed po., qd×15 at 12.5 and 100 mg/kg. Taxol® (MeadJohnson Oncology Products, Princeton, N.J.) was formulated in 0.9% sterile saline and dosed ip., qd×5 at 20 mg/kg. For control purposes one group received 5% Gelucire only (200 μl/animal, po, qd×15).
as §1
Mean tumor volume in Gelucire vehicle group on day 15 was used for the % growth inhibition calculation.

Experiment [5] has as its system Human Colon Carcinoma Colo-205. The experiment is described as follows: Anti-tumor efficacy of CPT-11 with Compound X, s.c. Colo-205 xenograft. Type of experiment: in vivo, Nu/Nu mice. As to conditions: vs Gelucire vehicle day 12. On the procedure:
as §2
CPT-11 (Camptosar®, Pharmacia & Upjohn, Kalamazoo, Mich.) was formulated in 0.9% saline and dosed iv×1 at 25 and 75 mg/kg. One group received 0.9% saline only (200 μl/animal, iv×1) which served as the control for the experiment. The mesylate salt of 3-(4-Bromo-2,6-difluoro-benzyloxy)-5-[3-(4-pyrrolidin-1-yl-butyl)-ureido}-isothiazole-4-carboxylic acid amide was formulated in 5% Gelucire (Gattefosse Inc., France) and dosed po, qd×12 at 25, 50 and 100 mg/kg. One group received 5% Gelucire only, (200 μl/animal, po, qd×12) which served as the vehicle control for the experiment.
as §1, §3

The test system of experiment [6] is Human Non Small Cell Lung Carcinoma EBC-1. In words: Anti-tumor efficacy of carboplatin with Compound X, s.c. EBC-1 xenograft. The experiment is classed as in vivo. As to conditions: vs saline vehicle day 14. On the procedure: Exponentially grown human non-small cell lung carcinoma EBC-1 cells [RPMI 1640 with 10% FBS, and pen/strep (Gibco)] were harvested and inoculated subcutaneously (10^7 cells/mouse, 200 μl) into the right flank of female Nu/Nu mice (˜20 grams; Charles River Laboratories, MA). 7 days after inoculation, tumor-bearing animals of approximately 175 mm^3 in size were separated into groups of 8 animals each.
Carboplatin (Bristol Oncology Products, Princeton, N.J.) was formulated in 0.9% saline and dosed ip., q3d×4 at 25 and 50 mg/kg. One group received 0.9% saline only (200 μl/animal, ip, q3d×4) which served as the control for the experiment. […] One group received 5% Gelucire only, (200 μl/animal, po, qd×14) which served as the vehicle control for the experiment.
as §1
Mean tumor volume in saline vehicle group on day 14 was used for the % growth inhibition calculation.

The mark [7] stands for this setting: Compound X 25 mg/kg, po, qd × 12.
Where [8] appears, read: Compound X 50 mg/kg, po, qd × 12.
Where [9] appears, read: Compound X 100 mg/kg, po, qd × 12.

Turning to `COc1cccc2c1C(=O)c1c(O)c3c(c(O)c1C2=O)C[C@@](O)(C(=O)CO)C[C@@H]3O[C@H]1C[C@H](N)[C@H](O)[C@H](C)O1` [Doxorubicin, reference compound], the “% Tumor Growth Inhibition” value in experiment [1] (Doxorubicin 2.5 mg/kg, ip × 1) was 7%; in experiment [1] (Doxorubicin 10 mg/kg, ip × 1), 48%.

Turning to `Nc1ccn([C@@H]2O[C@H](CO)[C@@H](O)C2(F)F)c(=O)n1` [Gemcitabine HCl, Gemcitabine hydrochloride], the “% Tumor Growth Inhibition” value in experiment [2] (Group 4: Gemcitabine HCl 1 mg/kg, ip, q3d × 4) is on record as 0%; in experiment [2] (Group 5: Gemcitabine HCl 5 mg/kg, ip, q3d × 4), 26%; in experiment [2] (Group 6: Gemcitabine HCl 80 mg/kg, ip, q3d × 4), 83%. Moreover, the mean tumor regression in experiment [2] (Group 6: Gemcitabine HCl 80 mg/kg, ip, q3d × 4, day 1 volume of group = 100%) amounted to 66% regression*.

For the compound `O=c1[nH]cc(F)c(=O)[nH]1` [Compound 5-FU, 5-fluorouracil, reference compound], the “% Tumor Growth Inhibition” value stood at 24% in experiment [3] (5-FU 25 mg/kg, iv × 1) and 59% in experiment [3] (5-FU 100 mg/kg, iv × 1).

`NC(=O)c1c(OCc2c(F)cc(Br)cc2F)nsc1NC(=O)NCCCCN1CCCC1` [Compound X, 3-(4-Bromo-2,6-difluoro-benzyloxy)-5-[3-(4-pyrrolidin-1-yl-butyl)-ureido}-isothiazole-4-carboxylic acid amide]: the “% Tumor Growth Inhibition” value in experiment [4] (Compound X 12.5 mg/kg, po, qd × 15) was 34%; in experiment [4] (Compound X 100 mg/kg, po, qd × 15) it was 72%; in experiment [2] (Group 2: Compound X 25 mg/kg, po, qd × 13), 16%; in experiment [2] (Group 3: Compound X 100 mg/kg, po, qd × 13), 46%; in experiment [5] (setting [7]) it was 9%; in experiment [5] (setting [8]), 28%. For the same compound, the “% Tumor Growth Inhibition” value in experiment [5] (setting [9]) was 66%; in experiment [3] (setting [7]) it was 21%; in experiment [3] (setting [8]), 47%; in experiment [3] (setting [9]), 64%; in experiment [1] (Compound X 25 mg/kg, po, qd × 24), 24%; in experiment [1] (Compound X 50 mg/kg, po, qd × 24), 46%. Also, the “% Tumor Growth Inhibition” value worked out at 49% in experiment [1] (Compound X 100 mg/kg, po, qd × 24) and 67% in experiment [6] (Compound X 100 mg/kg, po, qd × 4). Moreover, the “% tumor growth” value in experiment [1] (Compound X 12.5 mg/kg, po, qd × 24, growth instead of inhibition) is recorded as “(10% tumor growth)”.

For the compound `CCc1c2c(nc3ccc(OC(=O)N4CCC(N5CCCCC5)CC4)cc13)-c1cc3c(c(=O)n1C2)COC(=O)[C@]3(O)CC` [CPT-11, irinotecan HCl, reference compound], the “% tumor growth” value in experiment [5] (CPT-11 25 mg/kg, iv × 1, growth instead of inhibition) is “(7% Tumor Growth)”. Further, in experiment [5] (CPT-11 75 mg/kg, iv × 1), the “% Tumor Growth Inhibition” value worked out at 5%.

For `CC(=O)O[C@H]1C(=O)[C@@]2(C)[C@H]([C@H](OC(=O)c3ccccc3)[C@]3(O)C[C@H](OC(=O)[C@H](O)[C@@H](NC(=O)c4ccccc4)c4ccccc4)C(C)=C1C3(C)C)[C@]1(OC(C)=O)CO[C@@H]1C[C@@H]2O` [Taxol ®, Paclitaxel, reference compound], the “% Tumor Growth Inhibition” value in experiment [4] (Taxol 20 mg/kg, ip, qd × 5) was 75%.

Take `N.N.O=C([O-])C1(C(=O)[O-])CCC1.[Pt+2]` [Carboplatin, cis-diammine-1,1-cyclobutanedicarboxylato-platinum II]: the “% Tumor Growth Inhibition” value came out at 0% in experiment [6] (Carboplatin 25 mg/kg, ip, q3d × 4) and 31% in experiment [6] (Carboplatin 50 mg/kg, ip, q3d × 4).
